{"source": "patent US20260130395A1", "about": "“Water Dispersible Botanical Compositions” (Aquila Black Limited, priority 2021, published 2026)", "key": {"[1]": {"assay": "Stability of cannabinoid entourage and Vitamin E components of the powder concentrate by LCMSMS", "assay_type": "physicochemical", "settings": "powder stored at 21-25° C.", "protocol": "At each time period, 0.05 g of powder was dissolved in 10 ml-15 of ethanol, diluted to fall within the analytical range, and injected into the LCMSMS for analysis."}, "[2]": {"assay": "Stability of cannabinoid compounds and Vitamin E components in Beverage 1 (AB White) by LCMSMS", "assay_type": "physicochemical", "settings": "AB White stored at 8° C.", "experimental": "The stability of the plant-derived cannabinoid compounds and Vitamin E components of the beverage stored 8° C. and at room temperature (21-25° C.) were monitored, over a period of 570 days via Liquid Chromatography-tandem Mass Spectrometry [LCMSMS, Agilent 6590, C18, 3×50 mm, 2.7 m (Agilent InfinityLab Poroshell 120 EC-C18), Electrospray Ionization detector]. The LCMSMS was calibrated for 0-1000 ng/ml cannabinoids with the same resin material used in the preparation of the concentrates. At each time period, 100 ml of beverage was diluted with 10 ml of methanol and injected into the LCMSMS for analysis."}}, "data": [{"smiles": "C=C(C)[C@@H]1CCC(C)=C[C@H]1c1c(O)cc(CCC)cc1O", "note": "[CBDV, cannabidivarin]", "values": [{"measurement": "Stability of Plant-Derived Cannabinoid Compounds in Powder Concentrate", "setting": "[1]; 0 days", "value": 0.050, "unit": "mg/g powder"}, {"measurement": "Stability of Plant-Derived Cannabinoid Compounds in Powder Concentrate", "setting": "[1]; 1 days", "value": 0.051, "unit": "mg/g powder"}, {"measurement": "Stability of Plant-Derived Cannabinoid Compounds in Powder Concentrate", "setting": "[1]; 2 days", "value": 0.051, "unit": "mg/g powder"}, {"measurement": "Stability of Plant-Derived Cannabinoid Compounds in Powder Concentrate", "setting": "[1]; 3 days", "value": 0.048, "unit": "mg/g powder"}, {"measurement": "Stability of Plant-Derived Cannabinoid Compounds in Powder Concentrate", "setting": "[1]; 5 days", "value": 0.050, "unit": "mg/g powder"}, {"measurement": "Stability of Plant-Derived Cannabinoid Compounds in Powder Concentrate", "setting": "[1]; 8 days", "value": 0.051, "unit": "mg/g powder"}, {"measurement": "Stability of Plant-Derived Cannabinoid Compounds in Powder Concentrate", "setting": "[1]; 9 days", "value": 0.049, "unit": "mg/g powder"}, {"measurement": "Stability of Plant-Derived Cannabinoid Compounds in Powder Concentrate", "setting": "[1]; 10 days", "value": 0.050, "unit": "mg/g powder"}, {"measurement": "Stability of Plant-Derived Cannabinoid Compounds in Powder Concentrate", "setting": "[1]; 11 days", "value": 0.051, "unit": "mg/g powder"}, {"measurement": "Stability of Plant-Derived Cannabinoid Compounds in Powder Concentrate", "setting": "[1]; 12 days", "value": 0.051, "unit": "mg/g powder"}, {"measurement": "Stability of Plant-Derived Cannabinoid Compounds in Powder Concentrate", "setting": "[1]; 15 days", "value": 0.050, "unit": "mg/g powder"}, {"measurement": "Stability of Plant-Derived Cannabinoid Compounds in Powder Concentrate", "setting": "[1]; 16 days", "value": 0.049, "unit": "mg/g powder"}, {"measurement": "Stability of Plant-Derived Cannabinoid Compounds in Powder Concentrate", "setting": "[1]; 17 days", "value": 0.051, "unit": "mg/g powder"}, {"measurement": "Stability of Plant-Derived Cannabinoid Compounds in Powder Concentrate", "setting": "[1]; 18 days", "value": 0.051, "unit": "mg/g powder"}, {"measurement": "Stability of Plant-Derived Cannabinoid Compounds in Powder Concentrate", "setting": "[1]; 19 days", "value": 0.048, "unit": "mg/g powder"}, {"measurement": "Stability of Plant-Derived Cannabinoid Compounds in Powder Concentrate", "setting": "[1]; 22 days", "value": 0.049, "unit": "mg/g powder"}, {"measurement": "Stability of Plant-Derived Cannabinoid Compounds in Powder Concentrate", "setting": "[1]; 23 days", "value": 0.050, "unit": "mg/g powder"}, {"measurement": "Stability of Plant-Derived Cannabinoid Compounds in Powder Concentrate", "setting": "[1]; 24 days", "value": 0.051, "unit": "mg/g powder"}, {"measurement": "Stability of Plant-Derived Cannabinoid Compounds in Powder Concentrate", "setting": "[1]; 25 days", "value": 0.052, "unit": "mg/g powder"}, {"measurement": "Stability of Plant-Derived Cannabinoid Compounds in Powder Concentrate", "setting": "[1]; 26 days", "value": 0.050, "unit": "mg/g powder"}, {"measurement": "Stability of Plant-Derived Cannabinoid Compounds in Powder Concentrate", "setting": "[1]; 29 days", "value": 0.049, "unit": "mg/g powder"}, {"measurement": "Stability of Plant-Derived Cannabinoid Compounds in Powder Concentrate", "setting": "[1]; 30 days", "value": 0.051, "unit": "mg/g powder"}, {"measurement": "Stability of Plant-Derived Cannabinoid Compounds in Powder Concentrate", "setting": "[1]; 60 days", "value": 0.050, "unit": "mg/g powder"}, {"measurement": "Stability of Plant-Derived Cannabinoid Compounds in Powder Concentrate", "setting": "[1]; 90 days", "value": 0.050, "unit": "mg/g powder"}, {"measurement": "Stability of Plant-Derived Cannabinoid Compounds in Powder Concentrate", "setting": "[1]; 120 days", "value": 0.050, "unit": "mg/g powder"}, {"measurement": "Stability of Plant-Derived Cannabinoid Compounds in Powder Concentrate", "setting": "[1]; 150 days", "value": 0.051, "unit": "mg/g powder"}, {"measurement": "Stability of Plant-Derived Cannabinoid Compounds in Powder Concentrate", "setting": "[1]; 180 days", "value": 0.050, "unit": "mg/g powder"}, {"measurement": "Stability of Plant-Derived Cannabinoid Compounds in Powder Concentrate", "setting": "[1]; 210 days", "value": 0.049, "unit": "mg/g powder"}, {"measurement": "Stability of Plant-Derived Cannabinoid Compounds in Powder Concentrate", "setting": "[1]; 240 days", "value": 0.052, "unit": "mg/g powder"}, {"measurement": "Stability of Plant-Derived Cannabinoid Compounds in Powder Concentrate", "setting": "[1]; 270 days", "value": 0.051, "unit": "mg/g powder"}, {"measurement": "Stability of Plant-Derived Cannabinoid Compounds in Powder Concentrate", "setting": "[1]; 300 days", "value": 0.049, "unit": "mg/g powder"}, {"measurement": "Stability of Plant-Derived Cannabinoid Compounds in Powder Concentrate", "setting": "[1]; 330 days", "value": 0.052, "unit": "mg/g powder"}, {"measurement": "Stability of Plant-Derived Cannabinoid Compounds in Powder Concentrate", "setting": "[1]; 360 days", "value": 0.050, "unit": "mg/g powder"}, {"measurement": "Stability of Plant-Derived Cannabinoid Compounds in Powder Concentrate", "setting": "[1]; 390 days", "value": 0.049, "unit": "mg/g powder"}, {"measurement": "Stability of Plant-Derived Cannabinoid Compounds in Powder Concentrate", "setting": "[1]; 420 days", "value": 0.051, "unit": "mg/g powder"}, {"measurement": "Stability of Plant-Derived Cannabinoid Compounds in Powder Concentrate", "setting": "[1]; 450 days", "value": 0.049, "unit": "mg/g powder"}, {"measurement": "Stability of Plant-Derived Cannabinoid Compounds in Powder Concentrate", "setting": "[1]; 480 days", "value": 0.051, "unit": "mg/g powder"}, {"measurement": "Stability of Plant-Derived Cannabinoid Compounds in Powder Concentrate", "setting": "[1]; 510 days", "value": 0.049, "unit": "mg/g powder"}, {"measurement": "Stability of Plant-Derived Cannabinoid Compounds in Powder Concentrate", "setting": "[1]; 540 days", "value": 0.052, "unit": "mg/g powder"}, {"measurement": "Stability of Plant-Derived Cannabinoid Compounds in Powder Concentrate", "setting": "[1]; 570 days", "value": 0.048, "unit": "mg/g powder"}, {"measurement": "Stability of Plant-Derived Cannabinoid Compounds in AB White, 8° C.", "setting": "[2]; 0 days", "value": 0.150, "unit": "µg/mL"}, {"measurement": "Stability of Plant-Derived Cannabinoid Compounds in AB White, 8° C.", "setting": "[2]; 1 days", "value": 0.146, "unit": "µg/mL"}, {"measurement": "Stability of Plant-Derived Cannabinoid Compounds in AB White, 8° C.", "setting": "[2]; 2 days", "value": 0.147, "unit": "µg/mL"}, {"measurement": "Stability of Plant-Derived Cannabinoid Compounds in AB White, 8° C.", "setting": "[2]; 3 days", "value": 0.146, "unit": "µg/mL"}, {"measurement": "Stability of Plant-Derived Cannabinoid Compounds in AB White, 8° C.", "setting": "[2]; 5 days", "value": 0.147, "unit": "µg/mL"}, {"measurement": "Stability of Plant-Derived Cannabinoid Compounds in AB White, 8° C.", "setting": "[2]; 8 days", "value": 0.148, "unit": "µg/mL"}, {"measurement": "Stability of Plant-Derived Cannabinoid Compounds in AB White, 8° C.", "setting": "[2]; 9 days", "value": 0.146, "unit": "µg/mL"}, {"measurement": "Stability of Plant-Derived Cannabinoid Compounds in AB White, 8° C.", "setting": "[2]; 10 days", "value": 0.148, "unit": "µg/mL"}, {"measurement": "Stability of Plant-Derived Cannabinoid Compounds in AB White, 8° C.", "setting": "[2]; 11 days", "value": 0.150, "unit": "µg/mL"}, {"measurement": "Stability of Plant-Derived Cannabinoid Compounds in AB White, 8° C.", "setting": "[2]; 12 days", "value": 0.150, "unit": "µg/mL"}, {"measurement": "Stability of Plant-Derived Cannabinoid Compounds in AB White, 8° C.", "setting": "[2]; 15 days", "value": 0.150, "unit": "µg/mL"}, {"measurement": "Stability of Plant-Derived Cannabinoid Compounds in AB White, 8° C.", "setting": "[2]; 16 days", "value": 0.148, "unit": "µg/mL"}, {"measurement": "Stability of Plant-Derived Cannabinoid Compounds in AB White, 8° C.", "setting": "[2]; 17 days", "value": 0.146, "unit": "µg/mL"}, {"measurement": "Stability of Plant-Derived Cannabinoid Compounds in AB White, 8° C.", "setting": "[2]; 18 days", "value": 0.146, "unit": "µg/mL"}, {"measurement": "Stability of Plant-Derived Cannabinoid Compounds in AB White, 8° C.", "setting": "[2]; 19 days", "value": 0.149, "unit": "µg/mL"}, {"measurement": "Stability of Plant-Derived Cannabinoid Compounds in AB White, 8° C.", "setting": "[2]; 22 days", "value": 0.149, "unit": "µg/mL"}, {"measurement": "Stability of Plant-Derived Cannabinoid Compounds in AB White, 8° C.", "setting": "[2]; 23 days", "value": 0.149, "unit": "µg/mL"}, {"measurement": "Stability of Plant-Derived Cannabinoid Compounds in AB White, 8° C.", "setting": "[2]; 24 days", "value": 0.147, "unit": "µg/mL"}, {"measurement": "Stability of Plant-Derived Cannabinoid Compounds in AB White, 8° C.", "setting": "[2]; 25 days", "value": 0.149, "unit": "µg/mL"}, {"measurement": "Stability of Plant-Derived Cannabinoid Compounds in AB White, 8° C.", "setting": "[2]; 26 days", "value": 0.152, "unit": "µg/mL"}]}]}
